Measurements: patent publication US8551942B2, “Lyophilized anti-fungal compositions” (Merck Sharp & Dohme Corp., priority 2007, dated 2013)

Assay: Glass transition temperature by differential scanning calorimetry (DSC)
Type: physicochemical
Conditions: trehalose lyophilized in the same manner as the composition; average of samples
Protocol: The glass transition temperatures referred to herein (e.g., Tg(s) and Tg(c)) are the transition temperatures determined using differential scanning calorimetry (DSC). DSC measures the change in heat capacity between the glassy and rubbery states and is typically indicated by a change in baseline in a DSC thermogram.
The Tg(c) of the lyophilized composition was determined using a DSC Q2000 (TA Instruments) under a stream of nitrogen gas at 50 mL/minute as the purge gas. Several samples of the lyophilized composition (each about 5 mg) were prepared in a nitrogen purged glove box, and each was loaded into an aluminum DSC pan and hermetically sealed. The pans along with an empty pan as control were run in the DSC. The pans were first equilibrated at 25° C., then modulated at ±0.5° C. every 60 seconds, and then the temperature was raised at a rate of 2.5° C. per minute to a final temperature of 140° C. The samples was determined to have a Tg(c) of 97±2° C.
Several samples of trehalose were lyophilized in the same manner as set forth above for the caspofungin diacetate composition. The glass transition temperature Tg(s) of each of the lyophilized trehalose samples was determined using the instrument and procedure employed to determine Tg(c) described in the preceding paragraph. The average Tg(s) of the samples was 118±2° C.

Tg(s): 118±2 °C
Structure (SMILES): OC[C@H]1O[C@H](O[C@H]2O[C@H](CO)[C@@H](O)[C@H](O)[C@H]2O)[C@H](O)[C@@H](O)[C@@H]1O [trehalose]
